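Cells were grown in 96-well plates and exposed to each compound for 48 hours at five concentrations; endpoints were interpolated linearly between bracketing concentrations, or set to the highest concentration if not reached. GI50 marks 50% less growth.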 Active and inactive are the calls of the source. Rule as the data show it: active = GI50 up to about 1.1 µM and inactive = higher.
Columns and labels:
Assay in all cases: growth of human tumour cells (NCI), 48 h
[1] = test system: OVCAR-8
[2] = test system: TK-10
[3] = test system: A549
[4] = test system: MOLT-4
[5] = test system: U-251
[6] = test system: HCT-116
[7] = test system: HL-60
[8] = test system: UACC-257
[9] = test system: A498
[10] = test system: Hs-578T
[11] = test system: HT-29
[12] = test system: K562
[13] = test system: HCT-15
[14] = test system: BT-549
[15] = test system: PC-3
[16] = test system: SF-295
[17] = test system: NCI-H23
[18] = test system: NCI/ADR-RES
[19] = test system: MDA-N
[20] = test system: SK-MEL-5
[21] = test system: KM12
[22] = test system: MCF7
[23] = test system: MDA-MB-435
[24] = test system: EKVX
[25] = test system: HOP-92
[26] = test system: ACHN
[27] = test system: LOX IMVI
[28] = test system: UO-31
[29] = test system: CAKI-1
[30] = test system: IGROV-1
[31] = test system: SF-268
[32] = test system: SK-MEL-2
[33] = test system: CCRF-CEM
[34] = test system: OVCAR-4
[35] = test system: RXF 393
[36] = test system: M14
[37] = test system: RPMI-8226
[38] = test system: Malme-3M
[39] = test system: HOP-62
[40] = test system: SR
[41] = test system: COLO 205
[42] = test system: NCI-H522
[43] = test system: SNB-19
[44] = test system: SF-539
[45] = test system: T47D
[46] = test system: UACC-62
[47] = test system: OVCAR-3
[48] = test system: 786-0
[49] = test system: NCI-H226
[50] = test system: OVCAR-5
[51] = test system: SK-OV-3
[52] = test system: SW-620
[53] = test system: MDA-MB-231
[54] = test system: NCI-H460
[55] = test system: SNB-75
[56] = test system: DU-145
[57] = test system: SK-MEL-28
[58] = test system: SN12C
[59] = test system: HCC 2998

Measured: GI50

COc1cc([C@@H]2c3cc4c(cc3[C@H](OC3OC5COC(C(C)C)OC5C(O)C3O)C3COC(=O)[C@@H]32)OCO4)cc(OC)c1O (some centres undefined)
inactive: [1] 9.31 µM | [2] 23.5 µM | [3] 8.67 µM | [4] 3.17 µM | [5] 2.53 µM | [6] 3.85 µM | [7] 1.99 µM | [8] 8.87 µM | [9] 10.7 µM | [10] 9.71 µM | [11] 2.97 µM | [12] 8.61 µM | [14] 3.42 µM | [15] 4.08 µM | [16] 8.22 µM | [17] 4.03 µM | [18] 9.38 µM | [19] 2.4 µM | [20] 7.33 µM | [21] 16.1 µM | [22] 3.6 µM | [23] 4.58 µM | [24] 17.6 µM | [25] 11.9 µM | [26] 3.51 µM | [27] 12.2 µM | [28] 10.2 µM | [29] 4.27 µM | [30] 5.21 µM | [31] 9.86 µM | [32] 17.3 µM | [33] 6.03 µM | [34] 15.1 µM | [35] 4.76 µM | [36] 11.4 µM | [37] 5.2 µM | [38] 16.6 µM | [39] 11.7 µM | [40] 1.47 µM | [41] 6.82 µM | [42] 14 µM | [43] 14.6 µM | [44] 2.72 µM | [45] 26.6 µM | [46] 11.1 µM | [47] 11.8 µM | [48] 10 µM | [49] 5.26 µM | [50] 12.4 µM | [51] 17.3 µM | [52] 6.53 µM | [53] 14.1 µM | [54] 2.04 µM
10.3 µM: [13]

Cn1c(N)nc(-c2ccc(Cl)cc2)c1SSc1c(-c2ccc(Cl)cc2)nc(N)n1C
inactive: [1] 2.86 µM | [2] 1.86 µM | [3] 12.8 µM | [4] 5.25 µM | [5] 2.03 µM | [6] 4.23 µM | [55] 7.67 µM | [8] 2.04 µM | [9] 14.3 µM | [10] 27.1 µM | [11] 2.3 µM | [12] 2.36 µM | [14] 2.58 µM | [15] 1.84 µM | [16] 6.93 µM | [17] 1.63 µM | [18] 2.1 µM | [19] 1.77 µM | [20] 1.82 µM | [21] 1.85 µM | [23] 2.05 µM | [24] 2.73 µM | [25] 1.97 µM | [26] 2.38 µM | [28] 1.85 µM | [56] 12.8 µM | [30] 2.99 µM | [31] 2.77 µM | [57] 2.02 µM | [32] 17.8 µM | [33] 2.44 µM | [34] 1.75 µM | [35] 2.43 µM | [36] 2.12 µM | [37] 1.31 µM | [58] 3.42 µM | [38] 2.3 µM | [39] 2.86 µM | [41] 1.94 µM | [42] 1.66 µM | [43] 14.7 µM | [44] 1.71 µM | [45] 2.28 µM | [46] 2.3 µM | [47] 1.82 µM | [48] 1.92 µM | [49] 37.2 µM | [50] 1.86 µM | [51] 14.4 µM | [52] 2.07 µM | [53] 1.4 µM | [54] 3.45 µM | [59] 7.82 µM
1.77 µM: [13]
active: [7] 1.05 µM

Reference: ChEMBL document CHEMBL1201862, “PubChem BioAssay data set” (2004)
